# Results from patent US9604931B2, “Nuclear receptor binding agents” (GTx, Inc., priority 2007, dated 2017).
# pEC50: −log10 of the molar value.
# Assays:
# ER-α = ER-α (Rattus norvegicus (Rat), UniProt P06211); assay type: cell-based; settings: for Estradiol activity at 100 nM of NRBA, ER-α: 100 nM compound compared to 1 nM estradiol
# How it was run: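 COS or 293 cells in phenol red-free medium with charcoal-stripped FBS, transfected with a 2×ERE firefly luciferase reporter, CMV-Renilla control and rat-cloned receptor. Compounds, estrogen or DHT added 24 h post transfection, alone or combined; firefly and Renilla luciferase read 48 h after transfection.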
# ER-β = ER-β (Rattus norvegicus (Rat), UniProt Q62986); assay: Transient transactivation assay in HEK-293 cells, ER-β and ERE-LUC; assay type: cell-based; settings: for Function on ER-β in transactivation: HEK-293 cells
# Procedure: Human estrogen receptors (ER-α and ER-β) were cloned from prostate cDNA into a pCR3.1 plasmid vector backbone. PGC-1 was cloned into mammalian two hybrid vector pACT. ER-β H475 was mutated to alanine using site-directed mutagenesis. Sequencing was performed to determine the absence of any non specific mutations. […] HEK-293 cells were plated at 100,000 cells per well of a 24 well plate in […] (DMEM)+5% charcoal-stripped fetal bovine serum (csFBS). […] Luciferase assays were performed 48 hrs after transfection.
# The cells were treated with varying concentrations of the ligands and their EC50 values were determined.
# [1] = test system: Ishikawa endometrial cells; assay: Ishikawa growth assay (ALP); assay type: cell-based; settings: for Concentration at which proliferation of Ishikawa cells was induced: highest concentration tested
# Procedure: Ishikawa cells were plated at 15,000 cells/well in 24 well plates in DME:F12 (1:1)+5% csFBS w/o phenol red. The cells were maintained in this medium at 37° C. for 3 days. Medium was changed immediately prior to drug treatment for an additional 72 hrs. After 72 hrs, the cells were fixed with formalin and the amount of alkaline phosphatase (ALP) measured by para-nitrophenyl phosphate method.
# This effect is one potential concern in the development of ER-α SERMs.
# PPAR-γ = PPAR-γ transactivation (PPRE-LUC) in HEK-293 cells co-transfected with ER-β; assay type: cell-based
# Procedure: (§1) FIG. 12 depicts the effect of ER-β ligand on PPAR-γ function through ligand binding domain (LBD). (A). HEK-293 cells were transfected with 0.25 μg PPRE-LUC, 5 ng CMV-renilla LUC and the indicated receptors (PPAR-γ and ER-β for the left panel and PPAR-α and ER-β for the right panel). The cells were treated 24 hrs after transfection with the indicated ligands and harvested 48 hrs after transfection and firefly luciferase activity was measured and normalized to renilla luciferase. (B). H475 in ER-β LBD is important for its function. H475 in ER-β LBD was mutated to alanine (A) using a site directed mutagenesis kit. Transactivation assay was performed as described in panel A in HEK-293 cells with a titration of ER-β ligands in wild type (WT) or ER-β H475A. (C). […] The cells were treated 24 hrs after transfection with the indicated ligands and harvested 48 hrs after transfection and firefly luciferase activity was measured and normalized to renilla luciferase. […] The cells were treated 24 hrs after transfection with the indicated ligands and harvested 48 hrs after transfection and firefly luciferase activity was measured and normalized to renilla luciferase. […] The cells were treated 24 hrs after transfection with the indicated ligands and harvested 48 hrs after transfection and firefly luciferase activity was measured and normalized to renilla luciferase. […]
# PPAR-α = PPAR-α transactivation (PPRE-LUC) in HEK-293 cells co-transfected with ER-β; assay type: cell-based
# Procedure: as §1
# SHP promoter = assay: SHP promoter-luciferase assay in HEK-293 cells; assay type: cell-based; settings: transfected with FXR and ER-β
# Procedure: FIG. 12 depicts the effect of ER-β ligand on PPAR-γ function through ligand binding domain (LBD). (A). HEK-293 cells were transfected with 0.25 μg PPRE-LUC, 5 ng CMV-renilla LUC and the indicated receptors (PPAR-γ and ER-β for the left panel and PPAR-α and ER-β for the right panel). The cells were treated 24 hrs after transfection with the indicated ligands and harvested 48 hrs after transfection and firefly luciferase activity was measured and normalized to renilla luciferase. (B). H475 in ER-β LBD is important for its function. H475 in ER-β LBD was mutated to alanine (A) using a site directed mutagenesis kit. Transactivation assay was performed as described in panel A in HEK-293 cells with a titration of ER-β ligands in wild type (WT) or ER-β H475A. (C). […] HEK-293 cells were transfected with 0.25 μg PPRE-LUC, 5 ng CMV-renilla LUC and 50 ng of the indicated receptors (PPAR-γ or PPAR-γ and wild type ER-β or PPAR-γ and ER-β H475A). The cells were treated 24 hrs after transfection with the indicated ligands and harvested 48 hrs after transfection and firefly luciferase activity was measured and normalized to renilla luciferase. (D). […] HepG2 cells were transfected with 0.25 μg PPRE-LUC, 5 ng CMV-renilla LUC, 0.5 μg PGC-1 or vector backbone and 100 ng of the indicated receptors (PPAR-γ or PPAR-γ and wild type ER-β or PPAR-γ and ER-β H475A for top panels and PPAR-α or PPAR-α and ER-β for bottom panel). The cells were treated 24 hrs after transfection with the indicated ligands and harvested 48 hrs after transfection and firefly luciferase activity was measured and normalized to renilla luciferase. (E). SHP-1 is an ER-β specific target gene. HEK-293 cells were transfected with 0.25 μg SHP-LUC, 5 ng CMV-renilla LUC and 50 ng of the indicated receptors (FXR and ER-α for the left panel and FXR and ER-β for the right panel). The cells were treated 24 hrs after transfection with the indicated ligands and harvested 48 hrs after transfection and firefly luciferase activity was measured and normalized to renilla luciferase. PPAR—peroxisome proliferator and activated receptor; ER—estrogen receptor; H—histidine; A—alanine; RLU—relative luciferase units; Tro—troglitazone; PGC-1—PPAR-γ coactivator; SHP—small heterodimer partner; FXR—farsenoid X receptor.
# Human estrogen receptors (ER-α and ER-β) were cloned from prostate cDNA into a pCR3.1 plasmid vector backbone. PGC-1 was cloned into mammalian two hybrid vector pACT. ER-β H475 was mutated to alanine using site-directed mutagenesis. Sequencing was performed to determine the absence of any non specific mutations. SHP promoter (−572 to +10) (26) was cloned into pGL3 basic LUC reporter vector and human FXR was cloned into pCR3.1. […]
# [2] = test system: MHC, phospho-ERK, MCIP-1 in left ventricle; assay: Angiotensin II model, markers of cardiac hypertrophy; assay type: in vivo, ovariectomized C57/BJ6 and ERβKO mice
# Procedure: Thirty, ten week old female ovariectomized C57/BJ6 mice, were obtained from Harlan/Sprague Dawley and were housed in 12 hour on/off lighting and fed rodent chow devoid of soy or most plant products. Ovariectomized ERβKO mice were obtained from Ken Korach, NIEHS. The ERβ mice were originally created by Drs. Smithies, Gustafsson, and colleagues. All mice were identically housed and fed the same chow.
# This pellet is well documented to produce physiological levels of E2 in the serum of mice.
# RT-PCR was accomplished using the following primers. GAPDH expression served as control gene for all studies. MCIP1, 5′-[…] and […]; GAPDH, 5′-[…] and […]. • For relative protein detection, immunoblots were carried out on protein extracted from the left ventricles of mice from all conditions, following separation by SDS-PAGE and transfer to nitrocellulose. Cardiac myosin heavy chain (MHC) and MCIP antibodies (ABCAM, Cambridge, Mass. and Santa Cruz Biotechnology Inc., Santa Cruz, Calif.), and brain natriuretic peptide (BNP) antibodies (Penninsula Labs, Mountain View, Calif.) were used.
smiles,measurement,setting,value
"N#Cc1cn(-c2ccc(O)cc2)c(=O)c2c(O)cc(O)cc12 [14m, 6,8-dihydroxy-2-(4-hydroxyphenyl)-1-oxo-1,2-dihydroisoquinoline-4-carbonitrile]","Estradiol activity at 100 nM of NRBA, ER-α",ER-α,49%
same,pEC50,ER-β,> 8.00
same,Function on ER-β in transactivation,ER-β,agonists
same,Ishikawa cell proliferation,[1],weakly induced Ishikawa cell proliferation
same,Concentration at which proliferation of Ishikawa cells was induced,[1],1 µM
same,Troglitazone-induced PPAR-γ activity,PPAR-γ,partially inhibited
same,WY14643 induced PPAR-α transactivation,PPAR-α,did not affect
same,SHP promoter activity,SHP promoter,neither of the ligands activated SHP
"O=c1c2c(O)cc(O)cc2c(Br)cn1-c1ccc(O)cc1 [12u, 4-bromo-6,8-dihydroxy-2-(4-hydroxyphenyl)isoquinolin-1(2H)-one]",Classification as ER-α agonist,ER-α,ER-α agonists
same,"Estradiol activity at 100 nM of NRBA, ER-α",ER-α,62%
same,pEC50,ER-β,> 8.00
same,Function on ER-β in transactivation,ER-β,agonists
same,Ishikawa cell proliferation,[1],weakly induced Ishikawa cell proliferation
same,Concentration at which proliferation of Ishikawa cells was induced,[1],1 µM
same,Troglitazone-induced PPAR-γ activity,PPAR-γ,partially inhibited
same,WY14643 induced PPAR-α transactivation,PPAR-α,did not affect
same,SHP promoter activity,SHP promoter,neither of the ligands activated SHP
same,Ang II induced elevations in phospho-ERK (p-ERK),[2]; wildtype animals,partially prevented
same,MCIP-1 levels,"[2]; wildtype mice, irrespective of Ang II treatment",robustly elevated MCIP-1 levels
